How the values were obtained:
[1] = target: T1, Sodium- and chloride-dependent GABA transporter 3 (Homo sapiens, UniProt P48066); assay: Inhibition of human GAT3 expressed in Flp-In CHO cells assessed as reduction in [3H]GABA uptake incubated for 3 mins by liquid scintillation counting method; assay type: cell-based; conditions: read-out: IC50
T1 sequence (P48066 whole entry): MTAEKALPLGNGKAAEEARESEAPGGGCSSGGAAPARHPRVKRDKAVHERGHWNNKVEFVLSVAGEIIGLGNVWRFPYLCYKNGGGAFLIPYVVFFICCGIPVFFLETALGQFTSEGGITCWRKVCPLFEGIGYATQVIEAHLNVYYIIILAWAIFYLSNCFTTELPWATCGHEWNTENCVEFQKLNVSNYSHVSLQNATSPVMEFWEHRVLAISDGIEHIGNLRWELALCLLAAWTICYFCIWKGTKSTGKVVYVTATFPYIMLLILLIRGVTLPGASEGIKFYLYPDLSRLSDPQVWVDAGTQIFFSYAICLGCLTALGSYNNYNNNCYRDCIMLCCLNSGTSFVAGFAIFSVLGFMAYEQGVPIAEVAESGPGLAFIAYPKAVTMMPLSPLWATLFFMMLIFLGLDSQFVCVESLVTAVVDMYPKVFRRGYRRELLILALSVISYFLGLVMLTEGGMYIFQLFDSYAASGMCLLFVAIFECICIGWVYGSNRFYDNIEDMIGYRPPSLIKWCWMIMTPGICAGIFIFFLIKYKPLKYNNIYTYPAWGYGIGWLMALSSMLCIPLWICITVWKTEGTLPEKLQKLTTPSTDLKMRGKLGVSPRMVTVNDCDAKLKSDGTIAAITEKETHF

[2] = target: GABA-A receptor; alpha-1/beta-2/gamma-2 (Homo sapiens) (UniProt P14867+P47870+P18507); assay: Agonist activity at recombinant human GABA-A alpha1beta2gamma2S receptor transiently expressed in human tsA201 cells assessed as GABA-induced maximum response incubated for 30 mins and measured up to 90 secs by FMP dye based FLIPR membrane potential blue assay relative to GABA; assay type: cell-based
[3] = target: T2, Sodium- and chloride-dependent GABA transporter 2 (Homo sapiens, UniProt Q9NSD5); assay: Inhibition of human GAT2 expressed in Flp-In CHO cells assessed as reduction in [3H]GABA uptake incubated for 3 mins by liquid scintillation counting method; assay type: cell-based
T2 sequence (Q9NSD5 whole entry): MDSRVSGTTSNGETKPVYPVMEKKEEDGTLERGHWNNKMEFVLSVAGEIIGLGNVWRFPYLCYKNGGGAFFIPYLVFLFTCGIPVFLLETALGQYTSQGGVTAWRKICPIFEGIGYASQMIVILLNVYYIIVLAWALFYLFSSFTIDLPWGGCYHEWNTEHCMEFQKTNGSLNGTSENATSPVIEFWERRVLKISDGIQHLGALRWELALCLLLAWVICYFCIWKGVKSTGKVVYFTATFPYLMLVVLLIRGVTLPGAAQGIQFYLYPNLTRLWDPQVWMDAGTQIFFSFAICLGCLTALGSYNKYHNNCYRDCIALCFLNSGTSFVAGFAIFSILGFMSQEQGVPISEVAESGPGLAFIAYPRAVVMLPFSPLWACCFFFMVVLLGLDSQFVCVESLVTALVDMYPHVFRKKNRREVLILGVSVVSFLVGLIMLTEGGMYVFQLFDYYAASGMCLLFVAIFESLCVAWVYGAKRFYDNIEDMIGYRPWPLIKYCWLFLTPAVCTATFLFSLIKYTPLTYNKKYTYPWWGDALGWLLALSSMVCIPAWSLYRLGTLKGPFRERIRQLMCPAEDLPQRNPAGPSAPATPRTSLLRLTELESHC

[4] = target: Gamma-aminobutyric acid receptor subunit alpha-4/beta-2/gamma-2 (Homo sapiens, UniProt P18507+P47870+P48169); assay: Agonist activity at recombinant human GABA-A alpha4beta2gamma2S receptor transiently expressed in human tsA201 cells incubated for 30 mins and measured up to 90 secs by FMP dye based FLIPR membrane potential blue assay; assay type: cell-based
Chain of Gamma-aminobutyric acid receptor subunit alpha-4/beta-2/gamma-2 (Homo sapiens, UniProt P18507+P47870+P48169) (P48169 whole entry, one chain of several): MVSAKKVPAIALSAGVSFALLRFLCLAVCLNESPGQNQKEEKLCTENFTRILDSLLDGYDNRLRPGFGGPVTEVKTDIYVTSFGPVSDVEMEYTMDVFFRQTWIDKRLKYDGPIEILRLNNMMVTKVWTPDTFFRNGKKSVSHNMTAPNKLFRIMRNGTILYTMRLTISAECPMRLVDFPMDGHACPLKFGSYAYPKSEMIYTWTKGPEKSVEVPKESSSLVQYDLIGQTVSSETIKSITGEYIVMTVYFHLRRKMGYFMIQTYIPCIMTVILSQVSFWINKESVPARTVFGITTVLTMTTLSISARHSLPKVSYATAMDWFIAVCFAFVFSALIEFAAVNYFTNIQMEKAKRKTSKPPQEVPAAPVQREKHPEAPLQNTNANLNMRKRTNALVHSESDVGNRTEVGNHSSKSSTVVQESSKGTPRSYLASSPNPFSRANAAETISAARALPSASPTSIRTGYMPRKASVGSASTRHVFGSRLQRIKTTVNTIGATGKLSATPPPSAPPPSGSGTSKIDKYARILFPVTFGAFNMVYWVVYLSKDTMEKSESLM

[5] = target: Gamma-aminobutyric acid receptor subunit alpha-5/beta-2/gamma-2 (Homo sapiens) (UniProt P47870+P18507+P31644); assay: Agonist activity at recombinant human GABA-A alpha5beta2gamma2S receptor transiently expressed in human tsA201 cells assessed as GABA-induced maximum response incubated for 30 mins and measured up to 90 secs by FMP dye based FLIPR membrane potential blue assay relative to GABA; assay type: cell-based
[6] = target: GABA-A receptor; anion channel; assay: Displacement of [3H]muscimol from GABA(A) receptor in Sprague-Dawley rat cortical synaptic membranes by liquid scintillation counting
cells = assay type: cell-based; conditions: Homo sapiens, tsA201, 0.5 h
[7] = target: T3, Gamma-aminobutyric acid receptor subunit rho-1 (Homo sapiens, UniProt P24046); assay: Agonist activity at recombinant human GABA-A rho-1 receptor transiently expressed in human tsA201 cells incubated for 30 mins and measured up to 90 secs by FMP dye based FLIPR membrane potential blue assay; assay type: cell-based; conditions: read-out: EC50
T3 sequence (P24046 whole entry): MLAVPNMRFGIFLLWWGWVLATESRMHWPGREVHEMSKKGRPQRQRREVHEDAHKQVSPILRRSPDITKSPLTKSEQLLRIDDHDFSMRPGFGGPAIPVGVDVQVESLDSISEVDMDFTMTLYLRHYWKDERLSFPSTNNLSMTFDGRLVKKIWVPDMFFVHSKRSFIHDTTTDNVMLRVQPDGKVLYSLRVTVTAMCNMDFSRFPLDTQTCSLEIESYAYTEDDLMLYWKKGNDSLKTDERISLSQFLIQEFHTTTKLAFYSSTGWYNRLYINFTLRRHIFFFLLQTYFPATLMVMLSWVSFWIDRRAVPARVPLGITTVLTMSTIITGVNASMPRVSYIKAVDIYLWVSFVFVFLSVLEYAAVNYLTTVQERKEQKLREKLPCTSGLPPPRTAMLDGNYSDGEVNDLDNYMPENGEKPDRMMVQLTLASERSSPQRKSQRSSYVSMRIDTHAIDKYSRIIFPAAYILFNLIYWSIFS

[8] = target: T3, Gamma-aminobutyric acid receptor subunit rho-1; assay: Agonist activity at recombinant human GABA-A rho-1 receptor transiently expressed in human tsA201 cells assessed as GABA-induced maximum response incubated for 30 mins and measured up to 90 secs by FMP dye based FLIPR membrane potential blue assay relative to GABA; assay type: cell-based
[9] = target: T4, GABA-A receptor; alpha-1/beta-2/gamma-2 (Homo sapiens, UniProt P14867+P18507+P47870); assay: Agonist activity at recombinant human GABA-A alpha1beta2gamma2S receptor transiently expressed in human tsA201 cells incubated for 30 mins and measured up to 90 secs by FMP dye based FLIPR membrane potential blue assay; assay type: cell-based
T4 sequence (P14867 whole entry): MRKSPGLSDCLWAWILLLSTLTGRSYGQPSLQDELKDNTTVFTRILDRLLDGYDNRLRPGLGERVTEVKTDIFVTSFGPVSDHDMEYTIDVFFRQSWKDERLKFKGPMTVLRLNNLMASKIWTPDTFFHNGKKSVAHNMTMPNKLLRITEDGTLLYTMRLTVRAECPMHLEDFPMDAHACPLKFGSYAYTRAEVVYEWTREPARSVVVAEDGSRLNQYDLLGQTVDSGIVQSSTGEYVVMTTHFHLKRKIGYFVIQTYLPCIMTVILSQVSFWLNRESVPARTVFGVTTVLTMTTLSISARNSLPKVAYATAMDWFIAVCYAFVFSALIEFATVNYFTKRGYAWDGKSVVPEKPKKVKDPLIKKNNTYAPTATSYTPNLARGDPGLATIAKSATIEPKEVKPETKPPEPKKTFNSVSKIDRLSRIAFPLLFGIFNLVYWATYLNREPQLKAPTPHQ
T4 sequence (P47870 whole entry): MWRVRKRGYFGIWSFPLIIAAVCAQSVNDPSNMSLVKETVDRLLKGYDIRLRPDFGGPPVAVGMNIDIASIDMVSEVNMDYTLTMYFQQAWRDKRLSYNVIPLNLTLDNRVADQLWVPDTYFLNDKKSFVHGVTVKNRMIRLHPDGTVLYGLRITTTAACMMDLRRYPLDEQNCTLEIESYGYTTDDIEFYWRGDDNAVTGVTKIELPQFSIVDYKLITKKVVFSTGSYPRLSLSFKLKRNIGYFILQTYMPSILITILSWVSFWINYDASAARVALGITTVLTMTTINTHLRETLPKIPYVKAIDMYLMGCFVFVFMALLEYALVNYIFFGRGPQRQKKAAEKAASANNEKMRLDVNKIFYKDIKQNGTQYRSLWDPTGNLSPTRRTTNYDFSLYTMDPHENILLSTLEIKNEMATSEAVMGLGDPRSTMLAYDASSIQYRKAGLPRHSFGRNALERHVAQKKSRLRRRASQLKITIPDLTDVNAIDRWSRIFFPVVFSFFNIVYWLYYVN
T4 sequence (P18507 whole entry): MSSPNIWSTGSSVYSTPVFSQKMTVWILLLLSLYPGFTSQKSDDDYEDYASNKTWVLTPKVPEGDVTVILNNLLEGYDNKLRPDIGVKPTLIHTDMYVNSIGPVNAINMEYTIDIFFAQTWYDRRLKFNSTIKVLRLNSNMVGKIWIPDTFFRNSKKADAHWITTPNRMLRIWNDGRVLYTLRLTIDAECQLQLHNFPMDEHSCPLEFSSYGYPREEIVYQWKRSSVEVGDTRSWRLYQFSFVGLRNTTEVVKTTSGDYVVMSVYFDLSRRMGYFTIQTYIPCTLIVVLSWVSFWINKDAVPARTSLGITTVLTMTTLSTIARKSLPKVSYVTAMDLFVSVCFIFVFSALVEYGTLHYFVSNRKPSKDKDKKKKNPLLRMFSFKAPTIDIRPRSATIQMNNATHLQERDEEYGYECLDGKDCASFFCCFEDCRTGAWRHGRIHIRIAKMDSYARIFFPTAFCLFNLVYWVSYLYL

[10] = target: T5, Gamma-aminobutyric acid receptor subunit alpha-5/beta-2/gamma-2 (Homo sapiens, UniProt P18507+P31644+P47870); assay: Agonist activity at recombinant human GABA-A alpha5beta2gamma2S receptor transiently expressed in human tsA201 cells incubated for 30 mins and measured up to 90 secs by FMP dye based FLIPR membrane potential blue assay; assay type: cell-based
T5 sequence (P47870 whole entry): T4 sequence (P47870 whole entry)
T5 sequence (P18507 whole entry): T4 sequence (P18507 whole entry)
T5 sequence (P31644 whole entry): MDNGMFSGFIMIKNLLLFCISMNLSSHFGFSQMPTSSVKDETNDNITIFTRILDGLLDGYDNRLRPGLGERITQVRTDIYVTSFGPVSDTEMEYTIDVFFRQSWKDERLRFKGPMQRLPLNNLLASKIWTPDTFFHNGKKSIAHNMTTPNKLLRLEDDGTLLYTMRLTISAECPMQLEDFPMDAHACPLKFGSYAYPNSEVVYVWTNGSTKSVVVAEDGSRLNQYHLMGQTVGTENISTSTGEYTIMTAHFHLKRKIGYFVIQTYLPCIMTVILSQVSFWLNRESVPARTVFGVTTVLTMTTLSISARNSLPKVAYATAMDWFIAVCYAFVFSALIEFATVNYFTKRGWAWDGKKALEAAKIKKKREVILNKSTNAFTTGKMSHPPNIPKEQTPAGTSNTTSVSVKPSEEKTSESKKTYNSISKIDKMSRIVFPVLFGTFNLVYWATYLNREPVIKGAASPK

[11] = target: Gamma-aminobutyric acid receptor subunit alpha-4/beta-2/gamma-2 (Homo sapiens, UniProt P47870+P18507+P48169); assay: Agonist activity at recombinant human GABA-A alpha4beta2gamma2S receptor transiently expressed in human tsA201 cells assessed as GABA-induced maximum response incubated for 30 mins and measured up to 90 secs by FMP dye based FLIPR membrane potential blue assay relative to GABA; assay type: cell-based
Homo sapiens = organism: Homo sapiens; assay: Agonist activity at recombinant human GABA-A alpha3beta2gamma2S receptor transiently expressed in human tsA201 cells assessed as GABA-induced maximum response incubated for 30 mins and measured up to 90 secs by FMP dye based FLIPR membrane potential blue assay relative to GABA; assay type: cell-based

| IC50 [1] | Rmax [2] | IC50 [3] | EC50 ([4]; read-out: EC50) | EC50 ([4]; read-out: pEC50 (converted)) | Rmax [5] | Ki [6] | EC50 (cells; read-out: EC50) | EC50 (cells; read-out: pEC50 (converted)) | EC50 [7] | Rmax [8] | EC50 [9] | EC50 [10] | Rmax [11] | Compound | Rmax (Homo sapiens) |
| --- | --- | --- | --- | --- | --- | --- | --- | --- | --- | --- | --- | --- | --- | --- | --- |
| 11000 nM | 100% | 26000 nM | – | – | – | – | – | – | – | – | – | – | – | NCCCC(=O)O [GAMMA-AMINOBUTYRIC ACID] | – |
| – | 97% | – | 590 nM | 5890 nM | 104% | 59 nM | 370 nM | 372 nM | 5400 nM | 75% | 1500 nM | 120 nM | 105% | NC1=N[C@H](CC(=O)O)CS1 | 98% |
